Laboratory results from publication PMC12051620, “Molecular basis underlying the specificity of an antagonist AA92593 for mammalian melanopsins” (The Journal of Biological Chemistry, 2025).

How the values were obtained:
[1] = system: Xenopus Opn4x L207^5.42F mutant; experiment: GsX GloSensor assay with Gsα/q11; type: cell-based; conditions: 16.7 μM AA92593, COS-1 cells
Source text: (§1) Similar to human and mouse melanopsins (Fig. 5, F and H, I, M, and N), the introduction of a Phe residue at position 207^5.42 in Xenopus Opn4x and Chicken Opn4-1 increased their susceptibility of the melanopsins for AA92593 by ∼53% and ∼37%, respectively, although the substitutions reduced light-dependent cAMP responses by the melanopsins (Fig. 6, C and F, G and H). […]
(§2) For GloSensor assay, opsins, GloSensor assay sensor (coded by pGlo-22F), and NanoBiT-tagged G proteins were transiently expressed in COS-1 cells (kindly provided from Dr David Farrens, Oregon Health and Science University) using PEI as described previously ([24], [52]). […] For GFP-fluorescence microscopy, a 35-mm cell culture dish (IWAKI) was transfected with 2 μg melanopsin-GFP plasmid and 8 μg PEI in 400 μl Opti-mem and 1.2 ml D-MEM. […]
(§3) The transfected COS-1 cells were incubated at 37 °C, 5% CO2 for 2 days, and the medium was aspirated and exchanged with 50 μl of HBSS (145 mM NaCl, 10 mM D-glucose, 5 mM KCl, 1 mM MgCl2, 1.7 mM CaCl2, 1.5 mM NaHCO3, 10 mM Hepes, pH 7.4), containing 33.3, 20, 10, 2, 0.2, 0.02, 0.002, or 0 μM AA92593, 0.5% dimetyl sulfoxide (DMSO), and 4% (vol/vol) GloSensor cAMP reagent stock solution. […] Then, the cells were incubated at room temperature for 1 h, and luminescence changes were monitored. […] Luminescence was measured using GM-2000 or GM-3510 microplate reader (Promega). […]

[2] = system: chicken Opn4-1 L207^5.42F mutant; experiment: GsX GloSensor assay with Gsα/q11; type: cell-based; conditions: 16.7 μM AA92593, COS-1 cells
Source text: as §1, §2, §3

COc1ccc(S(=O)(=O)N2CCCCC2)cc1C [AA92593]
increase in susceptibility for AA92593 vs WT [1]: ~53% | increase in susceptibility for AA92593 vs WT [2]: ~37%
